From ChEMBL document CHEMBL1135081, “Insertion of 2-carboxysuccinate and tricarballylic acid fragments into cyclic-pseudopeptides: new antagonists for the human tachykinin NK-2 receptor” (Bioorg Med Chem Lett, 2002)

Experiments:
Substance-K receptor [1] = biological target: T1, Substance-K receptor (Oryctolagus cuniculus, UniProt P79218); assay: In vitro functional activity towards Neurokinin NK2 receptor on isolated rabbit urinary bladder (RUB); conditions: for Kb: read-out: pA2 (converted)
T1 sequence (P79218 whole entry): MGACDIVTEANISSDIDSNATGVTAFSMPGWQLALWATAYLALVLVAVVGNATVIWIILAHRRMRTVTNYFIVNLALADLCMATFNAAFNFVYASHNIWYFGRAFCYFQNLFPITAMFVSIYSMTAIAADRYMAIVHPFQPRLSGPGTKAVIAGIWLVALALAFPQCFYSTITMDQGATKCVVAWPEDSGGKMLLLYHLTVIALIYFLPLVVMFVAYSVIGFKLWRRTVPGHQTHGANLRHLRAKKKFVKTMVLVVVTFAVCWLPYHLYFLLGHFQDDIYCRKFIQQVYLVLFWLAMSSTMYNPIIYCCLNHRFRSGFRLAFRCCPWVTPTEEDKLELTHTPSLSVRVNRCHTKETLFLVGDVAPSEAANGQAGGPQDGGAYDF

Substance-K receptor [2] = biological target: T2, Substance-K receptor (Homo sapiens, UniProt P21452); assay: Displacement of [125I]NKA from human Tachykinin receptor 2 expressed in CHO cells; type: cell-based
T2 sequence (P21452 whole entry): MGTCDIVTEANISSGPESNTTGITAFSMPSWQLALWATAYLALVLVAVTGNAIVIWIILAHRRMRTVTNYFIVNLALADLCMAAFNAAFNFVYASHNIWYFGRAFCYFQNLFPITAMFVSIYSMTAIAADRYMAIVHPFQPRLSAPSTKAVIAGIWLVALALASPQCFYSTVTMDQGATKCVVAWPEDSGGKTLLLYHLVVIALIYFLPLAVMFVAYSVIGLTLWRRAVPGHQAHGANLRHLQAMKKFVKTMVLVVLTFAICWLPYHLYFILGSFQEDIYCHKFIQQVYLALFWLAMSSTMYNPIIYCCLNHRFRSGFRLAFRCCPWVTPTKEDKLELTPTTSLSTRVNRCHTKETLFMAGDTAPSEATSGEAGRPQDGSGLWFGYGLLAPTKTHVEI

With `O=C1C[C@@H](CC(=O)N2CCC(N3CCCCC3)CC2)C(=O)NC[C@@H](Cc2ccccc2)NC(=O)[C@@H](Cc2ccccc2)NC(=O)[C@H](Cc2c[nH]c3ccccc23)N1` the Kb (Substance-K receptor [1]) was 2.51 nM and the Ki (Substance-K receptor [2]) was 1.58 nM.

`O=C1C[C@H](CC(=O)N2CCC(N3CCCCC3)CC2)C(=O)NC[C@@H](Cc2ccccc2)NC(=O)[C@@H](Cc2ccccc2)NC(=O)[C@H](Cc2c[nH]c3ccccc23)N1` was tested, and the Kb (Substance-K receptor [1]) was 3.98 nM and the Ki (Substance-K receptor [2]) was 5.01 nM.

In the case of `O=C1CC(C(=O)N2CCN(CCOCCO)CC2)C(=O)NC[C@@H](Cc2ccccc2)NC(=O)[C@@H](Cc2ccccc2)NC(=O)[C@H](Cc2c[nH]c3ccccc23)N1` (some centres not stated), the Kb (Substance-K receptor [1]) is reported as 1 nM and the Ki (Substance-K receptor [2]) is reported as 1.58 nM.

In the case of `CC(=O)NC1C(NC(=O)C[C@@H]2CC(=O)N[C@@H](Cc3c[nH]c4ccccc34)C(=O)N[C@H](Cc3ccccc3)C(=O)N[C@H](Cc3ccccc3)CNC2=O)OC(CO)C(O)C1O` (some centres not stated), the Kb (Substance-K receptor [1]) is reported as 6.31 nM and the Ki (Substance-K receptor [2]) is reported as 7.94 nM.

With `CC(=O)NC1C(NC(=O)C2CC(=O)N[C@@H](Cc3c[nH]c4ccccc34)C(=O)N[C@H](Cc3ccccc3)C(=O)N[C@H](Cc3ccccc3)CNC2=O)OC(CO)C(O)C1O` (some centres not stated) the Kb (Substance-K receptor [1]) was 3.98 nM and the Ki (Substance-K receptor [2]) was 2.51 nM.

`CN(C)CCNC(=O)C[C@@H]1CC(=O)N[C@@H](Cc2c[nH]c3ccccc23)C(=O)N[C@H](Cc2ccccc2)C(=O)N[C@H](Cc2ccccc2)CNC1=O` showed a Kb (Substance-K receptor [1]) of 3.16 nM and a Ki (Substance-K receptor [2]) of 6.31 nM.

`CC(=O)NC1C(NC(=O)C[C@H]2CC(=O)N[C@@H](Cc3c[nH]c4ccccc34)C(=O)N[C@H](Cc3ccccc3)C(=O)N[C@H](Cc3ccccc3)CNC2=O)OC(CO)C(O)C1O` (some centres not stated) gave a Kb (Substance-K receptor [1]) of 7.94 nM and a Ki (Substance-K receptor [2]) of 6.31 nM.

`O=C1C[C@@H](CC(=O)N2CCOCC2)C(=O)NCC(Cc2ccccc2)NC(=O)C(Cc2ccccc2)NC(=O)[C@H](Cc2c[nH]c3ccccc23)N1` (single isomer, unassigned) was tested, and the Kb (Substance-K receptor [1]) was 1 nM and the Ki (Substance-K receptor [2]) was 0.631 nM.

Work on `O=C(C[C@@H]1CC(=O)N[C@@H](Cc2c[nH]c3ccccc23)C(=O)NC(Cc2ccccc2)C(=O)NC(Cc2ccccc2)CNC1=O)NC1OC(CO)C(O)C(O)C1O` (single isomer, unassigned) yielded a Kb (Substance-K receptor [1]) of 6.31 nM and a Ki (Substance-K receptor [2]) of 10 nM.

In the case of `O=C1CC(C(=O)N2CCOCC2)C(=O)NCC(Cc2ccccc2)NC(=O)C(Cc2ccccc2)NC(=O)[C@H](Cc2c[nH]c3ccccc23)N1` (single isomer, unassigned), the Kb (Substance-K receptor [1]) is reported as 0.631 nM and the Ki (Substance-K receptor [2]) is reported as 0.126 nM.

`O=C1CC(C(=O)NC(CO)CO)C(=O)NCC(Cc2ccccc2)NC(=O)C(Cc2ccccc2)NC(=O)[C@H](Cc2c[nH]c3ccccc23)N1` (single isomer, unassigned) showed a Kb (Substance-K receptor [1]) of 3.16 nM and a Ki (Substance-K receptor [2]) of 3.98 nM.

In the case of `O=C1CCC(=O)N[C@@H](Cc2c[nH]c3ccccc23)C(=O)NC(Cc2ccccc2)C(=O)N[C@H](Cc2ccccc2)CN1` (single isomer, unassigned), the Kb (Substance-K receptor [1]) is reported as 5.01 nM.

Molecule `O=C1CC(C(=O)N2CCC(N3CCCCC3)CC2)C(=O)NCC(Cc2ccccc2)NC(=O)C(Cc2ccccc2)NC(=O)[C@H](Cc2c[nH]c3ccccc23)N1` (single isomer, unassigned; 8e) has a Kb (Substance-K receptor [1]) of 0.794 nM and a Ki (Substance-K receptor [2]) of 0.0501 nM.

Molecule `O=C1CC(C(=O)N2CCC(N3CCCCC3)CC2)C(=O)NCC(Cc2ccccc2)NC(=O)C(Cc2ccccc2)NC(=O)[C@H](Cc2c[nH]c3ccccc23)N1` (single isomer, unassigned; 8f) has a pA2 (Substance-K receptor [1]) of 9.1 and a Ki (Substance-K receptor [2]) of 0.316 nM.
